The source made the active and inactive calls. The calls are words filed in the database; no cut-off is given here.
How the values were obtained:
[1] = Effect on secondary structure of drug in TFE assessed as formation of left-handed alpha-helical conformation at 150 uM by CD analysis; assay type: physicochemical
[2] = Effect on secondary structure of drug in SDS assessed as formation of left-handed alpha-helical conformation at 150 uM by CD analysis; assay type: physicochemical
[3] = tested on: RAW264.7; assay: Anti-inflammatory activity in mouse RAW264.7 cells assessed as decrease in LPS-induced NO production upto 10 uM pretreated for 1 hr followed by LPS treatment for 16 hrs by Griess assay; assay type: functional, cell-based; settings: time 17.0 hrs
[4] = tested on: Lipopolysaccharide (LPS); assay: Displacement of BODIPY-TR-cadaverine from Escherichia coli 0111:B4 LPS incubated for 30 mins by fluorescence based assay; settings: dose <= 32.0 µM
[5] = tested on: Lipopolysaccharide (LPS); assay: Displacement of BODIPY-TR-cadaverine from Escherichia coli 0111:B4 LPS at 16 uM incubated for 30 mins by fluorescence based assay relative to control
[6] = tested on: RAW264.7; assay: Displacement of FITC-labeled LPS pre-bound to surface receptors of mouse RAW264.7 cells incubated for 1 hr by flow cytometry; assay type: cell-based
[7] = target: Toll-like receptor 4 (Homo sapiens) (UniProt O00206); assay: Inhibition of LPS-induced human TLR4 activation expressed in HEK-Blue hTLR4 cells assessed as decrease in SEAP activity at 25 uM pretreated for 1 hr followed by LPS treatment for 16 hrs by absorbance based assay relative to control; assay type: cell-based; settings: time 17.0 hrs
[8] = target: T1, Toll-like receptor 4 (Mus musculus) (UniProt Q9QUK6); assay: Inhibition of LPS-induced TLR4 activation in mouse RAW264.7 cells assessed as decrease in p38 MAPK phosphorylation at 2 uM pretreated for 1 hr followed by LPS treatment for 30 mins by Western blot analysis relative to control; assay type: cell-based; settings: time 90.0 min
T1 sequence (whole entry): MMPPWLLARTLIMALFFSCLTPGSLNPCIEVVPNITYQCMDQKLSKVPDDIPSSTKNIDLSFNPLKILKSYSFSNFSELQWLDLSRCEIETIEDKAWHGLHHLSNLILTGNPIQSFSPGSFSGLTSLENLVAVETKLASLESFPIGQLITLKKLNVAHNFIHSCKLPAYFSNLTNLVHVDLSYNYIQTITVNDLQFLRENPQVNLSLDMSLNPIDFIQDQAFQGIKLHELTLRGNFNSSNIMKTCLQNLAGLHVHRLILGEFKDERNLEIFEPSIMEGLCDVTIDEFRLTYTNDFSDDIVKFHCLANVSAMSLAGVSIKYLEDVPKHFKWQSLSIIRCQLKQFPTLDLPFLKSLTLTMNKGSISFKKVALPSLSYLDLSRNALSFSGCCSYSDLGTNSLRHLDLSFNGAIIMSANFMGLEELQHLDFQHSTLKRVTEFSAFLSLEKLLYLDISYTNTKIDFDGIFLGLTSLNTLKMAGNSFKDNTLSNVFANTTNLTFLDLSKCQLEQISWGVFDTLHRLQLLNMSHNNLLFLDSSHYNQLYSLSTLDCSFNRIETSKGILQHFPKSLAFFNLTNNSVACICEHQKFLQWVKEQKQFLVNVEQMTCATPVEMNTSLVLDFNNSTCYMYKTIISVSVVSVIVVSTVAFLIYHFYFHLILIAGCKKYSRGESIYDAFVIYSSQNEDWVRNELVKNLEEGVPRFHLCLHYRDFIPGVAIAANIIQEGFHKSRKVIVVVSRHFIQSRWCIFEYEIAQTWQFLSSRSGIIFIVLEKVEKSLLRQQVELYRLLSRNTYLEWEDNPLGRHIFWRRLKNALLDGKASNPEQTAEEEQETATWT

[9] = tested on: Acinetobacter baumannii; assay: Antibacterial activity against carbapenem-resistant Acinetobacter baumannii 1915 incubated for 24 hrs by CLSI based broth microdilution method; assay type: functional, organism-based
[10] = tested on: Acinetobacter baumannii; assay: Antibacterial activity against carbapenem-resistant Acinetobacter baumannii-induced sepsis shock in ICR mouse model assessed as bacterial growth inhibition in lung at 1 mg/kg, ip pretreated with compound for 1 hr followed by bacterial infection measured after 16 hrs relative to control; assay type: functional; settings: time 17 hrs
[11] = tested on: Mus musculus; assay: Antiseptic activity in sepsis shock ICR mouse model infected with carbapenem-resistant Acinetobacter baumannii assessed as decrease in endotoxin level in serum at 1 mg/kg, ip pretreated with compound for 1 hr followed by bacterial infection measured after 16 hrs relative to control; assay type: functional; parameters: scale not given: the % may be the effect or the level left; settings: time 17 hrs
[12] = tested on: Mus musculus; assay: Antiseptic activity in sepsis shock ICR mouse model infected with carbapenem-resistant Acinetobacter baumannii assessed as decrease in AST level in serum at 1 mg/kg, ip pretreated with compound for 1 hr followed by bacterial infection measured after 16 hrs relative to control; assay type: functional; parameters: scale not given: the % may be the effect or the level left; settings: time 17 hrs
[13] = tested on: Mus musculus; assay: Antiseptic activity in sepsis shock ICR mouse model infected with carbapenem-resistant Acinetobacter baumannii assessed as decrease in ALT level in serum at 1 mg/kg, ip pretreated with compound for 1 hr followed by bacterial infection measured after 16 hrs relative to control; assay type: functional; parameters: scale not given: the % may be the effect or the level left; settings: time 17 hrs
[14] = tested on: Mus musculus; assay: (§1) Antiseptic activity in sepsis shock ICR mouse model infected with carbapenem-resistant Acinetobacter baumannii assessed as reduction in bacterial count in lungs at 1 mg/kg, ip pretreated with compound for 1 hr followed by bacterial infection measured after 16 hrs relative to control; assay type: functional; parameters: scale not given: the % may be the effect or the level left; settings: time 17 hrs
[15] = tested on: Mus musculus; assay: as §1, with “pre-infected” for “pretreated”, “bacteria” for “compound for 1 hr”, “compound administration 3 hrs post-infection” for “bacterial infection”; assay type: functional; parameters: scale not given: the % may be the effect or the level left
[16] = tested on: Mus musculus; assay: Antiseptic activity in sepsis shock ICR mouse model infected with carbapenem-resistant Acinetobacter baumannii assessed as reduction in bacterial count in liver at 1 mg/kg, ip pretreated with compound for 3 hrs followed by bacterial infection measured after 16 hrs relative to control; assay type: functional; parameters: scale not given: the % may be the effect or the level left; settings: time 19 hrs
[17] = tested on: Mus musculus; assay: Antiseptic activity in sepsis shock ICR mouse model infected with carbapenem-resistant Acinetobacter baumannii assessed as reduction in bacterial count in liver at 1 mg/kg, ip pre-infected with bacteria followed by compound administration 1 hr post-infection measured after 16 hrs relative to control; assay type: functional; parameters: scale not given: the % may be the effect or the level left
[18] = tested on: Mus musculus; assay: Antiseptic activity in sepsis shock ICR mouse model infected with carbapenem-resistant Acinetobacter baumannii assessed as reduction in bacterial count in kidney at 1 mg/kg, ip pretreated with compound for 1 hr followed by bacterial infection measured after 16 hrs relative to control; assay type: functional; parameters: scale not given: the % may be the effect or the level left; settings: time 17 hrs
[19] = tested on: Mus musculus; assay: Antiseptic activity in sepsis shock ICR mouse model infected with carbapenem-resistant Acinetobacter baumannii assessed as reduction in serum IL-6 level at 1 mg/kg, ip pretreated with compound for 1 hr followed by bacterial infection measured after 16 hrs relative to control; assay type: functional; parameters: scale not given: the % may be the effect or the level left; settings: time 17 hrs
[20] = tested on: Mus musculus; assay: Antiseptic activity in sepsis shock ICR mouse model infected with carbapenem-resistant Acinetobacter baumannii assessed as reduction in serum IL-6 level at 1 mg/kg, ip pre-infected with bacteria followed by compound administration 3 hrs post-infection measured after 16 hrs relative to control; assay type: functional; parameters: scale not given: the % may be the effect or the level left
[21] = tested on: Escherichia coli; assay: Antibacterial activity against Escherichia coli KCTC 1682 assessed as zone of clearance incubated for 4 hrs in presence of trypsin by radical diffusion assay; assay type: functional, organism-based
[22] = Proteolytic stability of compound assessed as trypsin (unknown origin)-mediated drug degradation at 150 uM incubated for 24 hrs by RP-HPLC analysis; assay type: ADME; settings: human
[23] = tested on: Staphylococcus aureus; assay: Synergistic bactericidal activity against methicillin-resistant Staphylococcus aureus CCARM 3089 at 0.5 to 2 uM incubated for 12 hrs in presence of oxacillin by time-kill assay; assay type: functional, organism-based; settings: dose 0.5-2 µM

Chain of Toll-like receptor 4 (Homo sapiens) (O00206 whole entry): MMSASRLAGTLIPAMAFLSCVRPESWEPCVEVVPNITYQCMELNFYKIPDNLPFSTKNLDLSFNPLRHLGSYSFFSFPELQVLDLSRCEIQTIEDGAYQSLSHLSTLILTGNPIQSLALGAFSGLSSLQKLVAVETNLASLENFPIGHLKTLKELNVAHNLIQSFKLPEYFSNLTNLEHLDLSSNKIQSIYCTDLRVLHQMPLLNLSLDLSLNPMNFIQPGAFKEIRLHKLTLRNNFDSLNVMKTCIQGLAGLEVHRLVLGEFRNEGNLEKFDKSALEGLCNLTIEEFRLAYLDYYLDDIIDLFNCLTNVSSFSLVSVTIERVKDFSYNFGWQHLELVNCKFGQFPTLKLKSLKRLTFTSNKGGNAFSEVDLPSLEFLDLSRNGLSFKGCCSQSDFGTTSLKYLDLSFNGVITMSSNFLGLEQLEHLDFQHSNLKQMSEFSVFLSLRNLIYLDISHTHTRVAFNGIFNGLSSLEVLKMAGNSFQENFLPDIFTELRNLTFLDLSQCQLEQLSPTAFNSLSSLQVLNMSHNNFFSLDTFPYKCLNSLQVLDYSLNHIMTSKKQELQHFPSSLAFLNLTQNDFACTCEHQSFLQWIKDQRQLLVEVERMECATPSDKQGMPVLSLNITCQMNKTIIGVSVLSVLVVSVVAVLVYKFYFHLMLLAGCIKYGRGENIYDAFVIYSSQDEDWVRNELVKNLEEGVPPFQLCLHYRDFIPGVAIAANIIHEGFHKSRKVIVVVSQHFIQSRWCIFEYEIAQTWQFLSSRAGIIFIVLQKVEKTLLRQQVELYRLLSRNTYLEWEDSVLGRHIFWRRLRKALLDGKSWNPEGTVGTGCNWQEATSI

With H-GVFRLKKWLKKVKKWGK-NH2 the Activity [1] was “Active”, the Activity [2] was “Active” and the Activity [3] was “Active”. The Activity [4] was “Dose-dependent-effect; Activity Similar To Ll-37”, the Activity [5] was 75% and the Activity [6] was “Active; Activity Similar To Ll-37”. For the same substance, the inhibition [7] was 100%, the inhibition [8] was 63% and the Activity [9] was “Active”. For the same substance, the inhibition in vivo at 1 mg/kg [10] was 96.5%, the Activity [11] was over 56.1% and the Activity [12] was 31.8%. For the same substance, the Activity [13] was 67.8%, the Activity [14] was 99% and the Activity [15] was 25%. It also gave an Activity [16] of 99.4%, an Activity [17] of 97.7% and an Activity [18] of 99.6%. It also gave an Activity [19] of 100% and an Activity [20] of 14.8%.
In the case of H-GVFRLKKWIKKVIKKWGK-NH2, the Activity [21] is reported as “inactive”, the Stability [22] is reported as “Unstable” and the Activity [23] is reported as “Active”.

From ChEMBL document CHEMBL6074662, “Antibacterial, Antibiofilm, and Anti-inflammatory Effects of a Novel Thrombin-Derived Peptide in Sepsis Models: Insights into Underlying Mechanisms” (J Med Chem, 2024)
